“And” between values parts separate entries of the source, which are not always exact repeats. Equal values may be shown once. Toxic doses and inconclusive results are not listed. The calls were made as follows: active = survival T/C of 150% or more; inactive = T/C below 125% in these data.
System: CD2F1 mice, L1210 leukemia ip, survival T/C
Test: NCI In Vivo Anticancer Drug Screen. Data for tumor model L1210 Leukemia (intraperitoneal) in CD2F1 (CDF1) mice
Conditions: higher = longer survival
In short: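 Mice carrying a transplanted tumor received test compound or vehicle alone. The value is the measurement in the treated group divided by that in the vehicle-treated control group.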

[1] = endpoint: mean survival time, dose: 100.0 mg/kg/injection, schedule: Q04DX003 (ip), vehicle: saline with Tween-80
[2] = endpoint: mean survival time, dose: 200.0 mg/kg/injection, schedule: Q04DX003 (ip), vehicle: saline with Tween-80
[3] = endpoint: mean survival time, dose: 50.0 mg/kg/injection, schedule: Q01DX009 (ip), vehicle: saline with Tween-80
[4] = endpoint: mean survival time, dose: 100.0 mg/kg/injection, schedule: Q01DX009 (ip), vehicle: saline with Tween-80
[5] = endpoint: mean survival time, dose: 200.0 mg/kg/injection, schedule: Q01DX009 (ip), vehicle: saline with Tween-80
[6] = endpoint: mean survival time, dose: 400.0 mg/kg/injection, schedule: Q04DX003 (ip), vehicle: saline with Tween-80
[7] = endpoint: mean survival time, dose: 100.0 mg/kg/injection, schedule: Q01DX001 (ip), vehicle: saline with Tween-80
[8] = endpoint: mean survival time, dose: 200.0 mg/kg/injection, schedule: Q01DX001 (ip), vehicle: saline with Tween-80
[9] = endpoint: mean survival time, dose: 400.0 mg/kg/injection, schedule: Q01DX001 (ip), vehicle: saline with Tween-80
[10] = endpoint: mean survival time, dose: 100.0 mg/kg/injection, schedule: Q04DX003 (ip), vehicle: saline
[11] = endpoint: mean survival time, dose: 200.0 mg/kg/injection, schedule: Q04DX003 (ip), vehicle: saline
[12] = endpoint: mean survival time, dose: 400.0 mg/kg/injection, schedule: Q04DX003 (ip), vehicle: saline
[13] = endpoint: mean survival time, dose: 100.0 mg/kg/injection, schedule: Q01DX009 (ip), vehicle: saline
[14] = endpoint: mean survival time, dose: 200.0 mg/kg/injection, schedule: Q01DX009 (ip), vehicle: saline
[15] = endpoint: mean survival time, dose: 400.0 mg/kg/injection, schedule: Q01DX009 (ip), vehicle: saline

Measured: T/C

CN(C)S(=O)(=O)Oc1cccc(N)c1
inactive: [1] 92 % of control | [2] 87 % of control

CS(=O)(=O)Nc1ccc2c(c1)C(=O)c1ccccc1C2=O
inactive: [3] 101 % of control | [4] 101 % of control | [5] 97 % of control

O=C1c2ccccc2C(=O)N1C1CCCCC1
inactive: [1] 100 % of control | [2] 95 % of control | [6] 95 % of control

CC(=O)Nc1sc([N+](=O)[O-])cc1[N+](=O)[O-]
inactive: endpoint: mean survival time, dose: 25.0 mg/kg/injection, schedule: Q04DX003 (ip), vehicle: saline with Tween-80 101 % of control | endpoint: mean survival time, dose: 50.0 mg/kg/injection, schedule: Q04DX003 (ip), vehicle: saline with Tween-80 108 % of control | [1] 91 % of control and 101 % of control

CCCC(CCC)=NN=C(CCC)CCC
inactive: endpoint: mean survival time, dose: 25.0 mg/kg/injection, schedule: Q01DX005 (ip), vehicle: saline 97 % of control | endpoint: mean survival time, dose: 25.0 mg/kg/injection, schedule: Q01DX009 (ip), vehicle: saline with Tween-80 95 % of control | endpoint: mean survival time, dose: 50.0 mg/kg/injection, schedule: Q01DX005 (ip), vehicle: saline 97 % of control | [3] 106 % of control | endpoint: mean survival time, dose: 50.0 mg/kg/injection, schedule: Q04DX002 (ip), vehicle: saline + alcohol 95 % of control | endpoint: mean survival time, dose: 100.0 mg/kg/injection, schedule: Q01DX005 (ip), vehicle: saline 105 % of control | [4] 91 % of control | endpoint: mean survival time, dose: 100.0 mg/kg/injection, schedule: Q04DX002 (ip), vehicle: saline + alcohol 92 % of control | endpoint: mean survival time, dose: 200.0 mg/kg/injection, schedule: Q01DX005 (ip), vehicle: saline 97 % of control | [5] 93 % of control | endpoint: mean survival time, dose: 200.0 mg/kg/injection, schedule: Q04DX002 (ip), vehicle: saline + alcohol 88 % of control

CCCCCCCCCCOc1ccc(OCCCCCCCCC)cc1
inactive: [7] 86 % of control | [8] 90 % of control

O=[As](O)(O)c1cccc2ccccc12
inactive: endpoint: mean survival time, dose: 1.25 mg/kg/injection, schedule: Q01DX009 (ip), vehicle: saline 90 % of control | endpoint: mean survival time, dose: 2.5 mg/kg/injection, schedule: Q01DX009 (ip), vehicle: saline 111 % of control

Nc1ccc(S(=O)(=O)c2ccc(Nc3ccccc3)c(N)c2)cc1
inactive: endpoint: mean survival time, dose: 100.0 mg/kg/injection, schedule: Q04DX002 (ip), vehicle: saline with Tween-80 97 % of control | endpoint: mean survival time, dose: 200.0 mg/kg/injection, schedule: Q04DX002 (ip), vehicle: saline with Tween-80 94 % of control | endpoint: mean survival time, dose: 400.0 mg/kg/injection, schedule: Q04DX002 (ip), vehicle: saline with Tween-80 97 % of control

CCOc1ccc2c(c1)c(CC(=O)O)cn2C
inactive: endpoint: mean survival time, dose: 100.0 mg/kg/injection, schedule: Q01DX001 (ip), vehicle: other 98 % of control | endpoint: mean survival time, dose: 200.0 mg/kg/injection, schedule: Q01DX001 (ip), vehicle: other 101 % of control | endpoint: mean survival time, dose: 400.0 mg/kg/injection, schedule: Q01DX001 (ip), vehicle: other 98 % of control

CCOC(=O)C1(C(=O)OCC)CCC(OCC)N1C(=O)c1cc2c(cc1[N+](=O)[O-])OCO2 (stereo unspecified)
inactive: endpoint: mean survival time, dose: 50.0 mg/kg/injection, schedule: Q01DX009 (ip), vehicle: Klucel (hydroxypropylcellulose) (HPC) 97 % of control | endpoint: mean survival time, dose: 100.0 mg/kg/injection, schedule: Q01DX009 (ip), vehicle: Klucel (hydroxypropylcellulose) (HPC) 101 % of control | endpoint: mean survival time, dose: 200.0 mg/kg/injection, schedule: Q01DX009 (ip), vehicle: Klucel (hydroxypropylcellulose) (HPC) 97 % of control

COC(=O)C1CC2C(CCC3C(C)(C(=O)OC)CCCC23C)C(=O)C1(O)C(C)C (stereo unspecified)
inactive: [1] 101 % of control | [2] 105 % of control | [6] 91 % of control

C[N+](C)(C)Cc1c[nH]c2ccccc12
inactive: [7] 94 % of control | [8] 91 % of control | [9] 96 % of control

NCCNCC(=O)O
inactive: [10] 97 % of control | [11] 93 % of control | [12] 97 % of control

CC(C)=NNCCO
inactive: endpoint: mean survival time, dose: 6.25 mg/kg/injection, schedule: Q01DX009 (ip), vehicle: saline 93 % of control | endpoint: mean survival time, dose: 12.5 mg/kg/injection, schedule: Q01DX009 (ip), vehicle: saline 95 % of control | endpoint: mean survival time, dose: 25.0 mg/kg/injection, schedule: Q01DX009 (ip), vehicle: saline 104 % of control

O=CC(O)C(Cl)C(Cl)C(O)CCl (stereo unspecified)
inactive: [10] 115 % of control | [11] 100 % of control | [12] 98 % of control

COC(=O)C1C2CCCN2OC1(C)CO (stereo unspecified)
inactive: endpoint: median survival time, dose: 7.5 mg/kg/injection, schedule: Q01DX005 (ip), vehicle: saline 98 % of control | endpoint: median survival time, dose: 15.0 mg/kg/injection, schedule: Q01DX005 (ip), vehicle: saline 101 % of control | endpoint: median survival time, dose: 30.0 mg/kg/injection, schedule: Q01DX005 (ip), vehicle: saline 96 % of control | endpoint: median survival time, dose: 60.0 mg/kg/injection, schedule: Q01DX005 (ip), vehicle: saline 106 % of control | endpoint: median survival time, dose: 120.0 mg/kg/injection, schedule: Q01DX005 (ip), vehicle: saline 104 % of control

Cc1cnc(Br)c(Br)c1
inactive: [7] 101 % of control | [4] 110 % of control | [8] 101 % of control | [5] 100 % of control | [9] 103 % of control | endpoint: mean survival time, dose: 400.0 mg/kg/injection, schedule: Q01DX009 (ip), vehicle: saline with Tween-80 100 % of control

COC1OC(COC(=O)c2ccc([N+](=O)[O-])cc2)C(SC#N)C1OC(=O)c1ccc([N+](=O)[O-])cc1 (stereo unspecified)
inactive: endpoint: mean survival time, dose: 50.0 mg/kg/injection, schedule: Q01DX001 (ip), vehicle: saline 101 % of control | endpoint: mean survival time, dose: 100.0 mg/kg/injection, schedule: Q01DX001 (ip), vehicle: saline 101 % of control | endpoint: mean survival time, dose: 200.0 mg/kg/injection, schedule: Q01DX001 (ip), vehicle: saline 91 % of control | endpoint: mean survival time, dose: 400.0 mg/kg/injection, schedule: Q01DX001 (ip), vehicle: saline 101 % of control

CN(C1=CC(=O)C(C)(C)c2ccccc21)C1CCCCC1
inactive: [1] 95 % of control | [2] 91 % of control | [6] 94 % of control

CN(C)C1c2cc(Br)ccc2-c2ccc(Br)cc21
inactive: endpoint: mean survival time, dose: 50.0 mg/kg/injection, schedule: Q01DX001 (ip), vehicle: carboxymethylcellulose (CMC) 101 % of control | endpoint: mean survival time, dose: 100.0 mg/kg/injection, schedule: Q01DX001 (ip), vehicle: carboxymethylcellulose (CMC) 101 % of control | endpoint: mean survival time, dose: 200.0 mg/kg/injection, schedule: Q01DX001 (ip), vehicle: carboxymethylcellulose (CMC) 104 % of control | endpoint: mean survival time, dose: 400.0 mg/kg/injection, schedule: Q01DX001 (ip), vehicle: carboxymethylcellulose (CMC) 104 % of control

O=C(O)C1(c2ccccc2)OCCO1
inactive: [10] 103 % of control | [11] 103 % of control | [12] 97 % of control

O=C(O)c1ccc(SSc2ccc(C(=O)O)cn2)nc1
inactive: [13] 102 % of control | [14] 96 % of control | [15] 94 % of control

COC1CCCCC1SCSC1CCCCC1OC (stereo unspecified)
inactive: [1] 91 % of control | [2] 87 % of control | [6] 89 % of control

C/C(=N\Nc1ccc([N+](=O)[O-])cc1[N+](=O)[O-])C1CCC(=O)O1 (stereo unspecified)
inactive: endpoint: mean survival time, dose: 50.0 mg/kg/injection, schedule: Q01DX001 (ip), vehicle: saline with Tween-80 109 % of control | [7] 103 % of control | [8] 103 % of control

CS(C)=O.[Cl-].[Cl-].[NH-]CC(O)CN(Cc1ccccc1)CC(O)CN.[Pt] (stereo unspecified)
inactive: endpoint: median survival time, dose: 10.0 mg/kg/injection, schedule: Q04DX003 (ip), vehicle: saline 104 % of control | endpoint: median survival time, dose: 20.0 mg/kg/injection, schedule: Q04DX003 (ip), vehicle: saline 109 % of control | endpoint: median survival time, dose: 40.0 mg/kg/injection, schedule: Q04DX003 (ip), vehicle: saline 110 % of control | endpoint: median survival time, dose: 80.0 mg/kg/injection, schedule: Q04DX003 (ip), vehicle: saline 86 % of control

Cc1ccc(/C=N/N2C(=O)CSC2=S)cc1
inactive: endpoint: mean survival time, dose: 75.0 mg/kg/injection, schedule: Q01DX001 (ip), vehicle: other 102 % of control | endpoint: mean survival time, dose: 150.0 mg/kg/injection, schedule: Q01DX001 (ip), vehicle: other 97 % of control

O=C(OC(CN1CCCCC1)CN1CCCc2ccccc21)C(O)C(O)C(O)(CO)C(=O)OC(CN1CCCCC1)CN1CCCc2ccccc21 (stereo unspecified)
inactive: [1] 95 % of control | [2] 91 % of control

Cc1cc(N)nc2ccccc12
inactive: endpoint: mean survival time, dose: 3.12 mg/kg/injection, schedule: Q04DX002 (ip), vehicle: saline with Tween-80 101 % of control | endpoint: mean survival time, dose: 6.25 mg/kg/injection, schedule: Q04DX002 (ip), vehicle: saline with Tween-80 105 % of control | endpoint: mean survival time, dose: 12.5 mg/kg/injection, schedule: Q04DX002 (ip), vehicle: saline with Tween-80 94 % of control and 101 % of control

CC(C)[Si](F)(c1ccc(Br)cc1)C(C)C
inactive: [1] 108 % of control | [2] 106 % of control | [6] 93 % of control

O=[N+]([O-])C(CO)(CO)CO
inactive: [13] 98 % of control | [14] 96 % of control | [15] 104 % of control
